In publication PMC4077696 (PLoS Biology, 2014):
Entries after “also recorded” stand apart in the source; their conditions may differ. Counter-ions that a name gives are not always drawn.

Experiments:
PvPMV = PvPMV (Plasmodium vivax, UniProt A5K302); assay: PEXEL cleavage assay with immunopurified PvPMVHA and fluorogenic KAHRP PEXEL peptide; assay type: biochemical
[1] = system: P. falciparum protein translation; assay: Global protein synthesis by radiolabeling parasite proteins after drug treatment; assay type: cell-based, Plasmodium falciparum; conditions: for Global protein synthesis after 23 h treatment of rings: 15 µM or 50>15 µM, BFA 5 µg/ml; for Global protein synthesis after 5 h treatment of trophozoites: 15 or 50 µM, BFA 10 µg/ml, 15 min labeling
Procedure: To gain further insight into the effects of 916, 024, and 025 on parasites, we assessed global protein synthesis following drug treatment by radiolabeling parasite proteins. Treatment of trophozoites with inhibitor for 5 h prior to radiolabeling had no detectable effect on translation, even at 50 µM concentrations (Figure S4A), indicating the compounds are not direct inhibitors of the translation machinery. We next assessed protein synthesis following 23 h of drug treatment of ring stage parasites (aged 1–3 h old at the initiation of treatment). […] Indeed, Giemsa smears following treatment identified a small proportion of pyknotic parasites in the population (results not shown). […] It is possible that PMV inhibition by 916 treatment has a similar but weaker effect to BFA, in that it causes the accumulation of uncleaved PEXEL precursors in the ER, perturbing ER transport, and that this negatively affects translation by an ER stress response. An alternative possibility is that translation was decreased slightly as a result of parasites dying from 916-mediated impairment of erythrocyte remodeling. Either way, the profile for 916 was different to that seen for 024 and 025, even at 50 µM, indicating the latter analogs likely kill parasites via a different mechanism to 916.
Whole parasite proteins were radiolabeled by culturing magnet-purified trophozoites (wild-type 3D7 or expressing PfEMP3-GFP) in Met/Cys-free medium for 30 min at 37°C before addition of 800 µCi/ml ^35S-Met/Cys (Perkin/Elmer) to the medium for the indicated times. Pellets were snap frozen in ethanol/dry ice bath and stored at −80°C. For radiolabeling in the presence of PMV inhibitor, parasites were treated with 20 µM WEHI-916 for 5 h before labeling commenced. For pulse-chases, proteins were radiolabeled in the presence or absence of inhibitor, as above, before further culture in radiolabel-free, inhibitor-free complete medium for the indicated times at 37°C before snap freezing. Frozen samples were either solubilized in Laemmli's buffer (Figure S4) or solubilized in 1% Triton X-100/PBS with protease inhibitor cocktail (Roche) and PfEMP3-GFP species immunopurified with α-GFP agarose (MBL) at 4°C for 2 h (Figures 3 and S3), and proteins were resolved by SDS-PAGE, visualized by autoradiography (7-d exposures), and quantified using a GS-800 Calibrated Densitometer (Bio-Rad).

[2] = system: EXP2 secretion in P. falciparum–infected erythrocytes; assay: EXP2 secretion to the parasitophorous vacuole membrane; assay type: cell-based, Plasmodium falciparum; conditions: 20 or 50 µM, 13 h
Procedure: (§1) For quantification of events in cells infected with parasites expressing Hyp8-GFP, highly synchronous ring-stage parasites engineered to express Hyp8-GFP from the CRT promoter were obtained by incubation of erythrocytes with viable merozoites for 15 min [47] and treated with 20 or 50 µM 916 30 min postinvasion for 13 h (until Hyp8-GFP expression from the CRT promoter had occurred for 1 h). Smears were fixed in 90∶10 acetone∶methanol, labeled with anti-GFP and anti-EXP2 antibodies, and Z-stacks captured on a Deltavision Elite microscope using a 100× objective. Over 40 Z-stacks per condition were imaged using the same exposure settings to allow quantitative analysis between groups.
The EXP2 signal was measured by masking the infected cell using a watershed transform on the summed and filtered red signal, seeded by the DAPI-positive parasite.

[3] = system: Hyp8-GFP export in P. falciparum–infected erythrocytes; assay: Quantification of Hyp8-GFP export and Maurer's clefts by immunofluorescence microscopy; assay type: cell-based, Plasmodium falciparum
Procedure: as §1
A parasite mask was generated by combining the signals from the maximum intensity projections of the nuclear (DAPI) and parasitophorous vacuole membrane (EXP2) images and setting a manual threshold. A whole infected erythrocyte mask was produced by manually tracing the cell boundary using the DIC image. Average GFP intensity measurements were determined on masked summed intensity projections of the GFP images using MetaMorph Image Analysis suite (Molecular Devices, USA). Ratios of the average intensity measurements of GFP inside the parasite (inside EXP2) versus exported to the erythrocyte (outside EXP2) were determined.
Clefts were counted using ImageJ's “Find Maxima” function to detect local maxima in the green signal within the masked cell region.

[4] = biological target: T1, PMV in P. falciparum expressing PMVHA-glmS (Plasmodium falciparum, UniProt Q8I6Z5); assay: PEXEL processing of PfEMP3-GFP in PMVHA-glmS parasites with PMV knockdown, immunoblot; assay type: cell-based; conditions: 20 µM 916, 5 h
T1 construct: incorporated in frame at the 3′ of the PMV locus by homologous recombination; expressed in transfected cells; host or cells: P. falciparum NF54 with pPMVHA-glmS integrated at the PMV locus, also transfected with PfEMP3-GFP
T1 sequence (Q8I6Z5 whole entry): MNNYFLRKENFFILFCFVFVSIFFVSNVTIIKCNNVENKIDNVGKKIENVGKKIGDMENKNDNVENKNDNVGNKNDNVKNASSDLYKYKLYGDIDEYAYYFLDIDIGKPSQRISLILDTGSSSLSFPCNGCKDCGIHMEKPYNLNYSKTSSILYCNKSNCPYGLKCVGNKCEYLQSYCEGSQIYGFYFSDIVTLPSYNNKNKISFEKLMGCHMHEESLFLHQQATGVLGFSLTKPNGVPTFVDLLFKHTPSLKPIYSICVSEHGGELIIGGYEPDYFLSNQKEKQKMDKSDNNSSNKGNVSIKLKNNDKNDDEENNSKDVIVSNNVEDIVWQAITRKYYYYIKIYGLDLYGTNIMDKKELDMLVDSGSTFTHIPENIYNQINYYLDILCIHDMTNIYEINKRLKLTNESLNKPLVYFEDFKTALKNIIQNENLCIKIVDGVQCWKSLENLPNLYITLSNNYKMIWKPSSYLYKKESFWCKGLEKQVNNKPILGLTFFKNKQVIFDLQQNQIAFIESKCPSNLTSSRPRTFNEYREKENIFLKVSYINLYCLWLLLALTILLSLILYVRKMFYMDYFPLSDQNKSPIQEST
Procedure: As 916 inhibited PMV in parasites (for example, by 13-fold, Figure 3G), the additive effect of PMV knockdown plus 916 treatment was investigated. Parasites expressing PMVHA-glmS were transfected with a construct encoding PfEMP3-GFP, and PEXEL processing was assessed by immunoblot.
Trophozoites (30–34 h) expressing PfEMP3-GFP, KAHRP-GFP, or SERA5s-GFP were magnet-purified (Miltenyi Biotech), incubated with inhibitors in 400 µl total volume at 37°C for 1–5 h, treated with 0.09% saponin containing inhibitor, and washed pellets were solubilized in Laemmli's buffer, boiled for 3 min, and frozen at −20°C. Proteins were separated by SDS-PAGE, transferred to nitrocellulose and blocked in 10% skim milk/PBS-T, and probed with rat α-HA (Roche 3F10; 1∶1,000), mouse α-GFP (Roche; 1∶1,000), rabbit α-Aldolase (1∶1,000), rabbit α-HSP70 (1∶4,000), rabbit α-PfPMV (1∶1,000), or rabbit α-Hyp8 (1∶500) primary antibodies followed by horseradish peroxidase-conjugated secondary antibodies (Silenius) and detected by enhanced chemiluminescence (Amersham).

[5] = system: P. falciparum overexpressing PvPMVHA; assay: Dose-response growth assay of parasites overexpressing PvPMVHA; assay type: cell-based, Plasmodium falciparum
Procedure: We next investigated the possible effects of PMV overexpression on parasite sensitivity to 916. […] To control for the carriage of episomes and selection on WR99210, sensitivity to 916 was compared between parasites overexpressing a similar construct on episomes on WR99210 selection (encoding miniVarHA; see Figure 1F).
In the case of dose-response curves, medium was kept for the entire experiment; in the case of curves in Figure 4B,C, medium was replaced with inhibitor-free medium at 48 h postinfection. Parasitaemia was always determined at 72 h by flow cytometry. To knock down PMV, GlcN (Sigma) was added to trophozoites and drug curves initiated by adding compound at subsequent rings (24 h) for 24–72 h.

Cathepsin D = Cathepsin D (Homo sapiens, UniProt P07339); assay: Off-target activity against human aspartyl protease Cathepsin D; assay type: biochemical; conditions: read-out: IC50 CathD
Sequence of Cathepsin D (P07339 65-412): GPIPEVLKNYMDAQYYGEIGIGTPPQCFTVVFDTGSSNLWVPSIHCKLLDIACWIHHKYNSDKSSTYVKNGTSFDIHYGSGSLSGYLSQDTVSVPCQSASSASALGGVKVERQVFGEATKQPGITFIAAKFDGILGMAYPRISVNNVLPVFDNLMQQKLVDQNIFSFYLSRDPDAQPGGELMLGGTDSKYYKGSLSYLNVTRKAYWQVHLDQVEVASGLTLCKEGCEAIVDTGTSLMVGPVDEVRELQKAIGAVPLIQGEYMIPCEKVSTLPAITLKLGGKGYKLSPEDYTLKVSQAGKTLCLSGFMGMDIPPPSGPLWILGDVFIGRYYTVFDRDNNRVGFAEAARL

Sequence of PvPMV (A5K302 35-536): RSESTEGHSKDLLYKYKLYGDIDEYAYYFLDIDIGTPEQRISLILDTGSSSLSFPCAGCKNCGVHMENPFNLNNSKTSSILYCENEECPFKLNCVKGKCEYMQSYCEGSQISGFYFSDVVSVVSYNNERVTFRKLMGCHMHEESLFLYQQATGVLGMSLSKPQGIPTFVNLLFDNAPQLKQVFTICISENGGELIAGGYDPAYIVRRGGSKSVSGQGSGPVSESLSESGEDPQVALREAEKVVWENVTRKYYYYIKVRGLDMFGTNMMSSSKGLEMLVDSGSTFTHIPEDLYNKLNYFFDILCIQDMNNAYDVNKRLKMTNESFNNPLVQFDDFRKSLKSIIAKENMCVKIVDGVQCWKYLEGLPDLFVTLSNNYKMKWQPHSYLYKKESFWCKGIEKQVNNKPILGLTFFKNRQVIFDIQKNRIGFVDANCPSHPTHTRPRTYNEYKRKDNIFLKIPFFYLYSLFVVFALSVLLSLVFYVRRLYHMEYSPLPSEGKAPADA

CC[C@H](C)[C@H](NC(=O)[C@@H](NC(=O)[C@H](CCCNC(=N)N)NS(=O)(=O)Cc1ccccc1)C(C)C)[C@@H](O)CC(=O)NCCc1ccccc1 [compound 025, PhCH2SO2Arg-Val-AHMHpA-NH(CH2)2Ph . TFA]
Activity against PvPMVHA, in words (PvPMV): weak activity
IC50 (PvPMV): 1.77 µM
Global protein synthesis after 23 h treatment of rings [1]: no defect in global protein synthesis
Global protein synthesis after 5 h treatment of trophozoites [1]: no defect in global protein synthesis

CC(C)C[C@H](NC(=O)[C@@H](NC(=O)[C@H](CCCNC(=N)N)NS(=O)(=O)Cc1ccccc1)C(C)C)[C@@H](O)CC(=O)NCCc1ccccc1 [compound 916, PhCH2SO2-Arg(NH2)-Val-Sta-NH(CH2)2Ph .TFA]
EXP2 signal at the parasitophorous vacuole membrane, in words [2]: no statistical difference
Nonexported Hyp8-GFP signal inside EXP2, in words ([3]; 20 or 50 µM, 13 h): small but significant increase in nonexported GFP signal
Hyp8-GFP in Maurer's clefts (exported), in words ([3]; 20 or 50 µM, 13 h from 30 min postinvasion): dose-dependent decrease of Hyp8-GFP in MCs
Reduction of mean number of GFP-positive Maurer's clefts ([3]; compared to DMSO): up to 39%
Enhancement of PEXEL cleavage impairment following PMV knockdown [4]: 50%
Increase in EC50 with PvPMVHA overexpression versus miniVarHA control ([5]; 5 nM WR99210 selection): 1.9 fold
Increase in EC50 with PvPMVHA overexpression versus wild-type 3D7 ([5]; wild-type 3D7 without WR99210 selection): 1.4 fold
Global protein synthesis after 23 h treatment of rings [1]: minor reduction in translation; also recorded: slight reduction in translation
Global protein synthesis after 5 h treatment of trophozoites [1]: no defect in global protein synthesis
IC50 (Cathepsin D): 25 µM
